Test results from PubChem BioAssay (NCI).
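96-well plates; 48 h exposure; 5 concentrations. Endpoints by linear interpolation between flanking doses. Not reached: highest tested concentration assigned. The concentration for full growth arrest is given as TGI.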

Legend:
Experiment in all cases: NCI tumour cell line growth inhibition, 48 h
DMS 273 small cell lung = tested on: DMS 273 small cell lung
OVCAR-8 ovarian = tested on: OVCAR-8 ovarian
SF-268 CNS = tested on: SF-268 CNS
HOP-92 NSCLC = tested on: HOP-92 NSCLC
M19-MEL melanoma = tested on: M19-MEL melanoma
SK-MEL-5 melanoma = tested on: SK-MEL-5 melanoma
786-0 renal = tested on: 786-0 renal
XF 498 CNS = tested on: XF 498 CNS
SW-620 colon = tested on: SW-620 colon
NCI-H226 lung = tested on: NCI-H226 lung
UACC-257 melanoma = tested on: UACC-257 melanoma
DMS 114 small cell lung = tested on: DMS 114 small cell lung
SNB-75 CNS = tested on: SNB-75 CNS
SN12C renal = tested on: SN12C renal
SK-MEL-2 melanoma = tested on: SK-MEL-2 melanoma
SR leukemia = tested on: SR leukemia
KM20L2 colon = tested on: KM20L2 colon
SK-OV-3 ovarian = tested on: SK-OV-3 ovarian
OVCAR-3 ovarian = tested on: OVCAR-3 ovarian
MALME-3M melanoma = tested on: MALME-3M melanoma
SNB-78 CNS = tested on: SNB-78 CNS
NCI-H23 lung = tested on: NCI-H23 lung
NCI-H460 lung = tested on: NCI-H460 lung
NCI-H522 lung = tested on: NCI-H522 lung
KM12 colon = tested on: KM12 colon
CAKI-1 renal = tested on: CAKI-1 renal
IGROV1 ovarian = tested on: IGROV1 ovarian
HOP-18 NSCLC = tested on: HOP-18 NSCLC
HOP-62 NSCLC = tested on: HOP-62 NSCLC
COLO 205 colon = tested on: COLO 205 colon
U251 CNS = tested on: U251 CNS
A549 NSCLC = tested on: A549 NSCLC
HL-60(TB) leukemia = tested on: HL-60(TB) leukemia
MOLT-4 leukemia = tested on: MOLT-4 leukemia
K-562 leukemia = tested on: K-562 leukemia
RXF 393 renal = tested on: RXF 393 renal
SF-295 CNS = tested on: SF-295 CNS
A498 renal = tested on: A498 renal
OVCAR-4 ovarian = tested on: OVCAR-4 ovarian
UO-31 renal = tested on: UO-31 renal
HT29 colon = tested on: HT29 colon
EKVX NSCLC = tested on: EKVX NSCLC
SNB-19 CNS = tested on: SNB-19 CNS
RXF-631 renal = tested on: RXF-631 renal
ACHN renal = tested on: ACHN renal
SF-539 CNS = tested on: SF-539 CNS
DLD-1 colon = tested on: DLD-1 colon
M14 melanoma = tested on: M14 melanoma
SK-MEL-28 melanoma = tested on: SK-MEL-28 melanoma
CCRF-CEM leukemia = tested on: CCRF-CEM leukemia
LXFL 529 NSCLC = tested on: LXFL 529 NSCLC
OVCAR-5 ovarian = tested on: OVCAR-5 ovarian
HCT-116 colon = tested on: HCT-116 colon

Work on `CCOc1ccc2c(c1)[n+]([O-])c(-c1ccccc1Cl)c(N)[n+]2[O-]` yielded a TGI (DMS 273 small cell lung) greater than 100 µM, a TGI (OVCAR-8 ovarian) greater than 100 µM and a TGI (SF-268 CNS) greater than 100 µM. It also gave a TGI (HOP-92 NSCLC) greater than 100 µM, a TGI (M19-MEL melanoma) greater than 100 µM and a TGI (SK-MEL-5 melanoma) greater than 100 µM. For the same compound, the TGI (786-0 renal) was greater than 100 µM, the TGI (XF 498 CNS) was greater than 100 µM and the TGI (SW-620 colon) was greater than 100 µM. It also gave a TGI (NCI-H226 lung) greater than 100 µM, a TGI (UACC-257 melanoma) greater than 100 µM and a TGI (DMS 114 small cell lung) greater than 100 µM. For the same compound, the TGI (SNB-75 CNS) was greater than 100 µM, the TGI (SN12C renal) was greater than 100 µM and the TGI (SK-MEL-2 melanoma) was greater than 100 µM. It also gave a TGI (SR leukemia) greater than 100 µM, a TGI (KM20L2 colon) greater than 100 µM and a TGI (SK-OV-3 ovarian) greater than 100 µM. The TGI (OVCAR-3 ovarian) was greater than 100 µM, the TGI (MALME-3M melanoma) was greater than 100 µM and the TGI (SNB-78 CNS) was greater than 100 µM. For the same compound, the TGI (NCI-H23 lung) was greater than 100 µM, the TGI (NCI-H460 lung) was greater than 100 µM and the TGI (NCI-H522 lung) was 33.8 µM. The TGI (KM12 colon) was greater than 100 µM, the TGI (CAKI-1 renal) was greater than 100 µM and the TGI (IGROV1 ovarian) was greater than 100 µM. For the same compound, the TGI (HOP-18 NSCLC) was greater than 100 µM, the TGI (HOP-62 NSCLC) was greater than 100 µM and the TGI (COLO 205 colon) was greater than 100 µM. It also gave a TGI (U251 CNS) greater than 100 µM, a TGI (A549 NSCLC) greater than 100 µM and a TGI (HL-60(TB) leukemia) greater than 100 µM. The TGI (MOLT-4 leukemia) was greater than 100 µM, the TGI (K-562 leukemia) was greater than 100 µM and the TGI (RXF 393 renal) was greater than 100 µM. For the same compound, the TGI (SF-295 CNS) was greater than 100 µM, the TGI (A498 renal) was greater than 100 µM and the TGI (OVCAR-4 ovarian) was greater than 100 µM. It also gave a TGI (UO-31 renal) greater than 100 µM, a TGI (HT29 colon) greater than 100 µM and a TGI (EKVX NSCLC) greater than 100 µM. For the same compound, the TGI (SNB-19 CNS) was greater than 100 µM, the TGI (RXF-631 renal) was greater than 100 µM and the TGI (ACHN renal) was greater than 100 µM. It also gave a TGI (SF-539 CNS) greater than 100 µM, a TGI (DLD-1 colon) greater than 100 µM and a TGI (M14 melanoma) greater than 100 µM. For the same compound, the TGI (SK-MEL-28 melanoma) was greater than 100 µM, the TGI (CCRF-CEM leukemia) was greater than 100 µM and the TGI (LXFL 529 NSCLC) was greater than 100 µM. For the same compound, the TGI (OVCAR-5 ovarian) was greater than 100 µM and the TGI (HCT-116 colon) was greater than 100 µM.
